Patent publication US9809597B2, “Ganciclovir derivatives for modulating innate and adaptive immunity and for use in immunotherapy” (The Board of Trustees of the Leland Stanford Junior …, priority 2015, dated 2017)

Assays:
[1] = test system: THP-1 human monocyte cells; test: RT-PCR for CXCL10 in THP-1 cells; format: cell-based; conditions: 200 μM, 8-24 hours
Protocol: BV-2 mouse microglia cells were grown in DMEM+10% FBS and THP-1 human monocyte cells were grown in RPMI-40+10% FBS+0.05 mM β-mercaptoethanol at 37° C., 5% CO2. Adherent cells were split using 1×TrypLE (Gibco). For cellular assays, cells were treated with the following concentrations of drugs as indicated in the DMEM without serum: 100-200 μM ganciclovir, 10 ng/ml IFNγ (R&D systems), 100 ng/ml LPS (Sigma-Aldrich), 1-10 μM Fludarabine (Selleckchem), 1 μM Ruxolitinib (Selleckchem), 1 μM TG-101348 (Selleckchem), 1 μM Amlexanox (Tocris bioscience) unless otherwise noted. All experiments were run in triplicates and replicated at least 3 times with cell lines and at least twice with primary microglia. Average data are shown for cell lines and representative data are shown for primary cells. Secreted signaling proteins were measured in supernatants from cultured cells stimulated with GCV and conditioned for 24 hours in the absence of serum using two independent Luminex arrays (Human Immune Monitoring Center, Stanford and Eve technologies, Canada). Nitrite assay was performed on conditioned culture supernatants of cells stimulated with drugs for 24 hours using the Griess Reagent System (Promega) according to manufacturer's instructions. To assess cellular viability, cell confluence was measured using an automated microscope (Cellavista; Roche). […]

[2] = test system: wildtype and STING^gt/gt mice with EAE; conditions: mouse model for multiple sclerosis, therapeutic doses equivalent to those in humans (Ding et al. 2014); cited from earlier work
[3] = test system: wildtype and STING^gt/gt mice with EAE; test: EAE induction and analysis; format: in vivo, mouse
[4] = test system: BV-2 cells; test: RT-PCR for CXCL10 and IFNβ transcripts in BV-2 cells; format: cell-based, mouse
Protocol: (§1) BV-2 mouse microglia cells were grown in DMEM+10% FBS and THP-1 human monocyte cells were grown in RPMI-40+10% FBS+0.05 mM β-mercaptoethanol at 37° C., 5% CO2. Adherent cells were split using 1×TrypLE (Gibco). For cellular assays, cells were treated with the following concentrations of drugs as indicated in the DMEM without serum: 100-200 μM ganciclovir, 10 ng/ml IFNγ (R&D systems), 100 ng/ml LPS (Sigma-Aldrich), 1-10 μM Fludarabine (Selleckchem), 1 μM Ruxolitinib (Selleckchem), 1 μM TG-101348 (Selleckchem), 1 μM Amlexanox (Tocris bioscience) unless otherwise noted. All experiments were run in triplicates and replicated at least 3 times with cell lines and at least twice with primary microglia. Average data are shown for cell lines and representative data are shown for primary cells. Secreted signaling proteins were measured in supernatants from cultured cells stimulated with GCV and conditioned for 24 hours in the absence of serum using two independent Luminex arrays (Human Immune Monitoring Center, Stanford and Eve technologies, Canada). Nitrite assay was performed on conditioned culture supernatants of cells stimulated with drugs for 24 hours using the Griess Reagent System (Promega) according to manufacturer's instructions. To assess cellular viability, cell confluence was measured using an automated microscope (Cellavista; Roche).
(§2) RNA was isolated from cells using RNeasy mini kit from Qiagen. DNased RNA was converted to cDNA using SuperScript III reverse transcriptase kit (Life technologies). The cDNA was used to quantify specific targets using SYBR green in Roche Lightcycler 480. ΔΔCt values normalized against the experimental control to determine fold change in mRNA for each sample compared to untreated or vehicle treated control. β-actin or Ubc or both were used as housekeeping genes. Primer sequences were obtained from PrimerBank. Fold change is shown compared to the vehicle treated or untreated cells, unless otherwise noted.

[5] = test system: primary microglia; test: RT-PCR for CXCL10 and IFNβ transcripts in primary microglia (wildtype, tk KO, STING^gt/gt); format: cell-based, mouse; conditions: 200 μM, 6 hours
Protocol: Mice were housed and bred according to the Institutional Animal Care and Use Committee guidelines. Primary microglia and astrocytes were isolated from P0-P3 C57BL/6 mouse pups. Cortices from pups were isolated, meninges removed and tissue was dissociated using a 25-gauge needle. Two cortices were plated on each poly-L-lysine coated T-75 flasks in DMEM/F12+10% FBS+1% penicillin/streptomycin. Microglia and astrocyte co-cultures were maintained for 3 weeks, after which microglia were isolated using CD11b magnetic beads (Miltenyi Biotec) according to the manufacturer's instructions. Isolated microglia were allowed to recover for 1-2 days and processed for cellular assays described above.
For tk KO experiments only, microglia were isolated from adult mouse brains using the neural dissociation kit (Miltenyi Biotec) according to manufacturer's protocol followed by CD11b magnetic bead enrichment. Isolated cells were cultured for 3-4 days before the experiment.
as §2

[6] = test system: BV-2 microglia; test: Cell viability (cell confluence, automated microscope); format: cell-based, mouse; conditions: GCV dose response
Protocol: as §1

[7] = test system: BV-2 microglia; test: Secreted factors analyzed by Luminex array in BV-2 supernatants; format: cell-based, mouse
Protocol: as §1

[8] = STING^gt/gt mice with EAE, day 18
[9] = STING^gt/gt mice, 18 days following disease induction
[10] = cerebella of wildtype mice with EAE, day 18
[11] = adult tk1 knockout primary microglia
[12] = primary microglia lacking functional STING
[13] = BV-2 culture supernatants, no exogenous stimulation, 24 hours GCV

In the case of Nc1nc(O)c2ncn(COC(CO)CO)c2n1 [GCV, Ganciclovir], the “induction of CXCL10 mRNA in human monocyte cell line” value [1] is listed as “induced”, the “disease course and pathology of EAE” value [2] is listed as “ameliorates the disease course and pathology” and the “overall Iba1 immunoreactivity” value [3, 8] is listed as “trend towards reducing”. The overall cell proliferation [3, 8] was “no reduction”, the “proliferating T-cells” value [3, 8] was “no reduction” and the proliferating microglia [3, 8] was “no reduction”. The “disease severity and incidence compared to untreated mice” value [3, 9] was “not significantly different”, the “lethality compared to untreated mice” value [3, 9] was “even higher” and the “effect on EAE in mice lacking STING” value ([3]; STING^gt/gt mice, GCV 100 mg/kg daily) was “only partially ameliorated EAE during the early phase of disease”. For the same molecule, the “CD3+BrDU+ proliferating T-cells” value [3, 10] was “did not change”, the “Iba1+BrDU+ proliferating microglia” value [3, 10] was “significantly decreased” and the “numbers of BrDU+ proliferating cells” value [3, 10] was “significantly decreased”. For the same molecule, the “numbers of Iba1+ microglia” value [3, 10] was “significantly decreased”, the lethality ([3]; wildtype mice, 18 days following disease induction, untreated 20%) was 0% and the disease incidence ([3]; wildtype mice, 18 days following disease induction, untreated 100%) was 40%. For the same molecule, the “disease severity (EAE score)” value ([3]; wildtype mice, GCV 100 mg/kg intra-peritoneally daily from day 3) was “drastically reduces disease severity”, the “induction of CXCL10 mRNA on neutralization of IFNβ with an antibody” value ([4]; BV-2 cells, 200 μM with anti-IFNβ antibody, 4 hours) was “partly reduced” and the EC50 ([4]; Mus musculus, BV-2 microglia, dose response, read-out: EC50, increase of CXCL10 transcript) was about 160 µM. For the same molecule, the “induction of IFNβ transcript” value ([4]; microglia (BV-2, primary), 200 μM) was “induced”, the “CXCL10 mRNA in microglia from tk1 knockout mice” value [5, 11] was “at levels seen in treated wild type microglia” and the “IFNβ mRNA in microglia from tk1 knockout mice” value [5, 11] was “at levels seen in treated wild type microglia”. The “induction of CXCL10 mRNA in STING^gt/gt primary microglia” value [5, 12] was “failed to induce”, the “induction of IFNβ mRNA in STING^gt/gt primary microglia” value [5, 12] was “failed to induce” and the “toxicity (cell viability)” value [6] was “without causing any toxicity”. The CCL2 ([7]; 100 μM GCV, 24 hours) was 28.8 ± 1.08 pg/mL, the IL12p70 ([7]; 100 μM GCV, 24 hours) was 0.34 ± 0.05 pg/mL and the IL17A ([7]; 100 μM GCV, 24 hours) was 3.5 ± 0.12 pg/mL. The MCSF ([7]; 100 μM GCV, 24 hours) was 23.76 ± 3.77 pg/mL, the MIP1β ([7]; 100 μM GCV, 24 hours) was 537.14 ± 449.94 ng/mL and the MIP2 ([7]; 100 μM GCV, 24 hours) was 14.77 ± 1.50 pg/mL. The TGFβ ([7]; 100 μM GCV, 24 hours) was 6.04 ± 0.58 pg/mL, the VEGF ([7]; 100 μM GCV, 24 hours) was 1.65 ± 0.51 pg/mL and the CCL2 ([7]; 200 μM GCV, 24 hours) was 28.25 ± 2.19 pg/mL. It also gave an IL12p70 ([7]; 200 μM GCV, 24 hours) of 0.16 ± 0.11 pg/mL, an IL17A ([7]; 200 μM GCV, 24 hours) of 2.54 ± 1.28 pg/mL and an IL22 ([7]; 200 μM GCV, 24 hours) of 3.09 ± 2.25 pg/mL. It also gave an MCSF ([7]; 200 μM GCV, 24 hours) of 25.48 ± 8.28 pg/mL, an MIP1β ([7]; 200 μM GCV, 24 hours) of 4.13 ± 3.36 ng/mL and an MIP2 ([7]; 200 μM GCV, 24 hours) of 13.02 ± 4.25 pg/mL. For the same molecule, the TGFβ ([7]; 200 μM GCV, 24 hours) was 5.36 ± 3.30 pg/mL, the VEGF ([7]; 200 μM GCV, 24 hours) was 1.56 ± 0.27 pg/mL and the “secreted CCL5 protein” value [7, 13] was “significantly increasing”. For the same molecule, the “secreted CXCL10 protein” value [7, 13] was “significantly increasing”, the “secreted IL-18 protein” value [7, 13] was “decreasing” and the “secreted IL-22 protein” value [7, 13] was “significantly increasing”. For the same molecule, the “secreted TNFα protein” value [7, 13] was “significantly increasing”.
